Laboratory results published in patent publication US8227480B2, “Indazole derivative having spiro ring structure in side chain” (Ube Industries, Ltd., priority 2006, dated 2012).
Structures can show the parent of a compound that is named as a salt.

What was measured:
[1] = tested on: cynomolgus monkeys; assay: Test for Measurement of Intraocular Pressure-Reducing Activity; format: in vivo; conditions: male cynomolgus monkeys, 0.1% test compound solution instilled into one eye, measured at 2, 4 and 6 hours after instillation, versus vehicle control
Text: Further, in order to verify the application of the present invention compound to a specific disease associated with Rho kinase, the intraocular pressure-reducing activity of the present invention compound was also studied. The details of the study will be illustrated in the “section of Pharmacological Test (Test for Measurement of Intraocular Pressure-Reducing Activity)” in the Examples which will be mentioned later.
In order to study the usefulness of the present invention compound as a therapeutic agent for glaucoma, an intraocular pressure-reducing effect in the case where the present invention compound was administered to cynomolgus monkeys (sex: male; one group consisting of 4 to 5 monkeys) was evaluated and studied. As a test compound, Example compound 2 (hereinafter referred to as the test compound) was used. […]
2) The intraocular pressure was measured immediately before administration of the test compound solution, which was defined as the initial intraocular pressure. […]
4) At 2, 4 and 6 hours after instillation of the test compound solution, one drop of a 0.4% oxybuprocaine hydrochloride eye drop was instilled into both eyes to achieve local anesthesia and then the intraocular pressure was measured. Measurement of the intraocular pressure for each time was carried out three times and a mean value thereof was calculated. […]

[2] = molecular target: T1, activated ROCK-II (Rattus norvegicus, UniProt Q62868); assay: Test for Evaluation of Rho Kinase Inhibitory Activity; format: biochemical; conditions: Ki=IC50/(1+S/Km); [γ-32P]ATP, S6 kinase substrate peptide, 30° C. for 15 minutes
T1 construct: purchased Upstate Biotechnology 14-338
Experimental: In order to find the usefulness of the present invention compound, a Rho kinase inhibitory activity of the present invention compound was evaluated and studied. The details of the evaluation and study will be illustrated in the “section of Pharmacological Test (Test for Evaluation of Rho Kinase Inhibitory Activity)” in the Examples which will be mentioned later. The evaluation and study of the Rho kinase inhibitory activity of the present invention compound were carried out in accordance with the method described in J. Biol. Chem., 274, 32418 (1999) and the method described in the instruction manual for use attached to the commercially available activated ROCK-II [Upstate Biotechnology, Catalog No. 14-338 (5 units/50 μl)].
In order to study the usefulness of the present invention compound as a Rho kinase inhibitor, in accordance with the method described in J. Biol. Chem., 274, 32418 (1999) and the method described in the instruction manual for use attached to the commercially available activated ROCK-II [Upstate Biotechnology, Catalog No. 14-338 (5 units/50 μl)], the Rho kinase inhibitory activity of the present invention compound was evaluated and studied. As a test compound, Example compound 2 was used. […]
7) The filter paper is dipped in ethanol and then dried. Thereafter, the amount of phosphorylated substrate is measured using a liquid scintillation counter. […]

T1 sequence (Q62868 11-552 limits assumed): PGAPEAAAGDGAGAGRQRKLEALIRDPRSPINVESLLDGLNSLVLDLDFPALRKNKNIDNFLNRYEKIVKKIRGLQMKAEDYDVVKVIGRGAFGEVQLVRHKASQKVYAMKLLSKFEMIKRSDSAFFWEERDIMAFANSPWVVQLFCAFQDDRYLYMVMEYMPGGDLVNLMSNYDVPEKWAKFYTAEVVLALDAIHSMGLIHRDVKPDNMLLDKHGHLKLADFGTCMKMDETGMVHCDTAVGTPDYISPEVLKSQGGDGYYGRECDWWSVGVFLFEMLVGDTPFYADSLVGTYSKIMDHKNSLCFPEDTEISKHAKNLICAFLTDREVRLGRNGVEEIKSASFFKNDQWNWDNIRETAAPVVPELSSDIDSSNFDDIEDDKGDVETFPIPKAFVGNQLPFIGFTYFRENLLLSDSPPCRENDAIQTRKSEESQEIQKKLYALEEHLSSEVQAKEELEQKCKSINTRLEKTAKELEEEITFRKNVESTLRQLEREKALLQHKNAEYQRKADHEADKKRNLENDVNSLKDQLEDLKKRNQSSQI

Structure (SMILES)	melting point	intraocular pressure-reducing activity (change from the initial intraocular pressure, FIG. 1) [1]	Ki [2] [nM]
NC1(c2ccc(-c3ccc4[nH]ncc4c3C3CC3)nc2)CC2(CC2)C1 (as salt: hydrochloride) [Example compound 2, 5-{5-(5-amino-spiro[2,3]hex-5-yl)pyridin-2-yl}}-4-cyclopropyl-1H-indazole Dihydrochloride]	> 300 °C (dec.)	–	–
CC(C)(C)OC(=O)NC1(c2ccc(-c3ccc4c(cnn4C4CCCCO4)c3C3CC3)nc2)CC2(CC2)C1 (stereo not shown) [Example compound 1]	199 to 202 °C	–	–
NC1(c2ccc(-c3ccc4[nH]ncc4c3C3CC3)nc2)CC2(CC2)C1 [Example compound 2, 5-{5-(5-amino-spiro[2,3]hex-5-yl)pyridin-2-yl}}-4-cyclopropyl-1H-indazole Dihydrochloride]	–	excellent intraocular pressure-reducing activity	3.5
